The source of these data is patent US9278981B2, “Compounds and compositions for inhibiting the activity of ABL1, ABL2 and BCR-ABL1” (Novartis AG, priority 2012, dated 2016).

Test [1] has as its target T1, ABL1 (64-515) (Homo sapiens (Human), UniProt P00519). Nature of the test: Caliper ABL1 (64-515) assay (microfluidic mobility shift). The class given is biochemical.
For test [2], the target named is T1, ABL1 (64-515). Nature of the test: Radio ABL1 (64-515) assay (radiometric filter-binding). The class given is biochemical.

T1 sequence (P00519 64-515): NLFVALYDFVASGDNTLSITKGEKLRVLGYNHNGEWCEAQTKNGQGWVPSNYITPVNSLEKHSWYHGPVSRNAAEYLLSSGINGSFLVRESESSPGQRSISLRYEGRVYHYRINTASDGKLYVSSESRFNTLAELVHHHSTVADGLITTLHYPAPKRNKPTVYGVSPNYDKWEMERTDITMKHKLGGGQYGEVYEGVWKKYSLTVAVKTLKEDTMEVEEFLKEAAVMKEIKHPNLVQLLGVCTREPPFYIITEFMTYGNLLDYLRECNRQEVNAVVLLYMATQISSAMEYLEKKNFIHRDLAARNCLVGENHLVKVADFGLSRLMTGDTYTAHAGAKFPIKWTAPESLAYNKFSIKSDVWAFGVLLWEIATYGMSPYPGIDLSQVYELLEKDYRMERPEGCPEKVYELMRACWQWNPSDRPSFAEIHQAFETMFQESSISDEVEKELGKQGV

As usually defined, the IC50 is the concentration at which inhibition is half-maximal. With `O=C(Nc1ccc(OC(F)(F)F)cc1)c1cnc(N2C[C@@H](O)[C@@H](O)C2)c(-c2cncc(F)c2)c1` [Example 235, 2-(cis-3,4-Dihydroxypyrrolidin-1-yl)-5′-fluoro-N-(4-(trifluoromethoxy)phenyl)-[3,3′-bipyridine]-5-carboxamide], the results for the IC50 on ABL1 (64-515) [1] and at ABL1 (64-515) [2] were 1.8 nM and 2 nM, respectively.

As to `CN(C)[C@H]1CN(c2ncc(C(=O)Nc3ccc(OC(F)(F)F)cc3)cc2-c2cncc(F)c2)C[C@@H]1O` [Example 236, 2-((3S,4S)-3-(Dimethylamino)-4-hydroxypyrrolidin-1-yl)-5′-fluoro-N-(4-(trifluoromethoxy)phenyl)-[3,3′-bipyridine]-5-carboxamide], the results for the IC50 on ABL1 (64-515) [1] and on ABL1 (64-515) [2] were 1.4 nM and 3 nM, respectively.

For the compound `NCC1CN(c2ncc(C(=O)Nc3ccc(OC(F)(F)F)cc3)cc2-c2cncc(F)c2)CC1O` (stereo not shown) [Example 237, 2-(3-(Aminomethyl)-4-hydroxypyrrolidin-1-yl)-5′-fluoro-N-(4-(trifluoromethoxy)phenyl)-[3,3′-bipyridine]-5-carboxamide], the IC50 on ABL1 (64-515) [1] turned out to be 1.2 nM; at ABL1 (64-515) [2] it was 0.6 nM.

As for `NC1CN(c2ncc(C(=O)Nc3ccc(OC(F)(F)F)cc3)cc2-c2cncc(F)c2)C1` [Example 238, 2-(3-Aminoazetidin-1-yl)-5′-fluoro-N-(4-(trifluoromethoxy)phenyl)-[3,3′-bipyridine]-5-carboxamide], the 50% inhibitory concentration (IC50) on ABL1 (64-515) [1] was found to be 2.6 nM; on ABL1 (64-515) [2], 2 nM.

`CN(C)C1CN(c2ncc(C(=O)Nc3ccc(OC(F)(F)F)cc3)cc2-c2cncc(F)c2)C1` [Example 239, 2-(3-(Dimethylamino)azetidin-1-yl)-5′-fluoro-N-(4-(trifluoromethoxy)phenyl)-[3,3′-bipyridine]-5-carboxamide]: the results for the half-maximal inhibitory concentration (IC50) at ABL1 (64-515) [1] and at ABL1 (64-515) [2] were 2.6 nM and 4 nM, respectively.

Take `N#Cc1ccncc1-c1cc(C(=O)Nc2ccc(OC(F)(F)F)cc2)cnc1N1CC[C@@H](O)C1` [Example 240, (R)-4′-Cyano-2-(3-hydroxypyrrolidin-1-yl)-N-(4-(trifluoromethoxy)phenyl)-[3,3′-bipyridine]-5-carboxamide]: the 50% inhibitory concentration (IC50) at ABL1 (64-515) [1] turned out to be 1.4 nM; at ABL1 (64-515) [2] it was 2 nM.

On to `Nc1ncc(-c2cc(C(=O)Nc3ccc(OC(F)(F)F)cc3)cnc2N2CC[C@@H](O)C2)cc1F` [Example 241, (R)-6′-Amino-5′-fluoro-2-(3-hydroxypyrrolidin-1-yl)-N-(4-(trifluoromethoxy)phenyl)-[3,3′-bipyridine]-5-carboxamide], for which the concentration for half-maximal inhibition (IC50) at ABL1 (64-515) [1] came to 1.3 nM; at ABL1 (64-515) [2], 1.7 nM.

Take `O=C(Nc1ccc(OC(F)(F)F)cc1)c1cnc(N2CC[C@@H](O)C2)c(-c2cc(F)nc(F)c2)c1` [Example 242, (R)-2′,6′-Difluoro-2-(3-hydroxypyrrolidin-1-yl)-N-(4-(trifluoromethoxy)phenyl)-[3,4′-bipyridine]-5-carboxamide]: the half-maximal inhibitory concentration (IC50) at ABL1 (64-515) [1] stood at 4.5 nM; on ABL1 (64-515) [2], 6 nM.

On to `O=C(Nc1ccc(OC(F)(F)Cl)cc1)c1ccc(N2CC[C@@H](O)C2)c(-c2cncnc2)c1` [Example 243, (R)—N-(4-(Chlorodifluoromethoxy)phenyl)-4-(3-hydroxypyrrolidin-1-yl)-3-(pyrimidin-5-yl)benzamide], for which the half-inhibitory concentration (IC50) on ABL1 (64-515) [1] was found to be 0.5 nM; at ABL1 (64-515) [2], 1.3 nM.

Turning to `O=C(Nc1ccc(OC(F)(F)Cl)cc1)c1ccc(N2C[C@H](O)[C@@H](O)C2)c(-c2cncnc2)c1` [Example 244, N-(4-(Chlorodifluoromethoxy)phenyl)-4-((3S,4S)-3,4-dihydroxypyrrolidin-1-yl)-3-(pyrimidin-5-yl)benzamide], the IC50 on ABL1 (64-515) [1] worked out at 0.6 nM; at ABL1 (64-515) [2], 1 nM.

For `N[C@H]1CN(c2ccc(C(=O)Nc3ccc(OC(F)(F)Cl)cc3)cc2-c2cncnc2)C[C@@H]1O` [Example 245, 4-((3S,4S)-3-Amino-4-hydroxypyrrolidin-1-yl)-N-(4-(chlorodifluoromethoxy)phenyl)-3-(pyrimidin-5-yl)benzamide], the concentration for half-maximal inhibition (IC50) at ABL1 (64-515) [1] came out at 1 nM; at ABL1 (64-515) [2] it was 5 nM.

Take `Cc1ncc(-c2cc(C(=O)Nc3ccc(OC(F)(F)Cl)cc3)ccc2N2C[C@H](O)[C@@H](O)C2)cn1` [Example 246, N-(4-(Chlorodifluoromethoxy)phenyl)-4-((3S,4S)-3,4-dihydroxypyrrolidin-1-yl)-3-(2-methylpyrimidin-5-yl)benzamide]: the results for the IC50 at ABL1 (64-515) [1] and at ABL1 (64-515) [2] were 2.2 nM and 1 nM, respectively.

On to `O=C(Nc1ccc(OC(F)(F)Cl)cc1)c1cnc(N2CCC(F)(F)C2)c(-c2cncnc2)c1` [Example 247, N-(4-(Chlorodifluoromethoxy)phenyl)-6-(3,3-difluoropyrrolidin-1-yl)-5-(pyrimidin-5-yl)nicotinamide], for which the IC50 at ABL1 (64-515) [1] was below 0.13 nM; at ABL1 (64-515) [2] it was 1.9 nM.

Take `CN(C)[C@H]1CN(c2ncc(C(=O)Nc3ccc(OC(F)(F)Cl)cc3)cc2-c2cncnc2)C[C@@H]1O` [Example 251]: the values for the IC50 at ABL1 (64-515) [1] and on ABL1 (64-515) [2] were 0.7 nM and below 0.1 nM, respectively.

In the case of `NC12CC1CN(c1ncc(C(=O)Nc3ccc(OC(F)(F)Cl)cc3)cc1-c1cncnc1)C2` (stereo not shown) [Example 252], the 50% inhibitory concentration (IC50) came out at 0.5 nM on ABL1 (64-515) [1] and 8.3 nM at ABL1 (64-515) [2].

For the compound `N[C@@H]1[C@H]2CN(c3ncc(C(=O)Nc4ccc(OC(F)(F)Cl)cc4)cc3-c3cncnc3)C[C@@H]12` [Example 253], the half-maximal inhibitory concentration (IC50) at ABL1 (64-515) [1] amounted to 0.5 nM; at ABL1 (64-515) [2] it was 2 nM.

Turning to `O=C(Nc1ccc(OC(F)(F)Cl)cc1)c1cnc(N2Cc3cn[nH]c3C2)c(-c2cncnc2)c1` [Example 254], the IC50 on ABL1 (64-515) [1] was 0.6 nM; at ABL1 (64-515) [2] it was below 0.1 nM.

With `N[C@@H]1CCCN(c2ncc(C(=O)Nc3ccc(OC(F)(F)Cl)cc3)cc2-c2cncnc2)C1` [Example 255], the IC50 at ABL1 (64-515) [1] came to 1.1 nM; at ABL1 (64-515) [2], 2.1 nM.

`O=C(Nc1ccc(OC(F)(F)Cl)cc1)c1cnc(N2CCNC3(CC3)C2)c(-c2cncnc2)c1` [Example 256]: the IC50 on ABL1 (64-515) [1] came to 0.4 nM; on ABL1 (64-515) [2] it was 2 nM.

In the case of `O=C(Nc1ccc(OC(F)(F)Cl)cc1)c1cnc(N2CC(O)C2)c(-c2cncnc2)c1` [Example 258], the IC50 at ABL1 (64-515) [1] worked out at 1.1 nM; at ABL1 (64-515) [2], 2.7 nM.

As for `NC1CN(c2ncc(C(=O)Nc3ccc(OC(F)(F)Cl)cc3)cc2-c2cncnc2)C1` [Example 259], the IC50 on ABL1 (64-515) [1] is below 0.13 nM; on ABL1 (64-515) [2], 5.1 nM.

Consider `O=C(Nc1ccc(OC(F)(F)Cl)cc1)c1cnc(N(CCO)CCO)c(-c2cncnc2)c1` [Example 261], for which the half-inhibitory concentration (IC50) on ABL1 (64-515) [1] amounted to 3.9 nM; on ABL1 (64-515) [2], 1.8 nM.

As to `Cc1ncc(-c2cc(C(=O)Nc3ccc(OC(F)(F)Cl)cc3)cnc2N2C[C@H](O)[C@@H](O)C2)cn1` [Example 262], the IC50 at ABL1 (64-515) [1] was 0.7 nM; at ABL1 (64-515) [2], 2 nM.

In the case of `Cc1ncncc1-c1cc(C(=O)Nc2ccc(OC(F)(F)Cl)cc2)cnc1N1CC[C@@H](O)C1` [Example 263], the 50% inhibitory concentration (IC50) was below 0.13 nM at ABL1 (64-515) [1] and 3 nM at ABL1 (64-515) [2].

In the case of `O=C(Nc1ccc(OC(F)(F)Cl)cc1)c1cnc(N2C[C@@H](O)[C@@H](O)C2)c(-c2cncc(F)c2)c1` [Example 264], the half-maximal inhibitory concentration (IC50) is 0.6 nM at ABL1 (64-515) [1] and 1 nM on ABL1 (64-515) [2].

For the compound `O=C(Nc1ccc(OC(F)(F)Cl)cc1)c1cnc(N2C[C@H](O)[C@@H](O)C2)c(-c2cncc(F)c2)c1` [Example 265], the IC50 on ABL1 (64-515) [1] was below 0.13 nM; at ABL1 (64-515) [2], 3 nM.

With `N#Cc1cncc(-c2cc(C(=O)Nc3ccc(OC(F)(F)Cl)cc3)cnc2N2C[C@H](O)[C@@H](O)C2)c1` [Example 269], the IC50 at ABL1 (64-515) [1] was below 0.13 nM; on ABL1 (64-515) [2] it was below 0.1 nM.

For `Cc1ncccc1-c1cc(C(=O)Nc2ccc(OC(F)(F)Cl)cc2)cnc1N1CC[C@@H](O)C1` [Example 270], the IC50 at ABL1 (64-515) [1] was 0.6 nM; at ABL1 (64-515) [2], 2 nM.

For the compound `Nc1ncc(-c2cc(C(=O)Nc3ccc(OC(F)(F)Cl)cc3)cnc2N2CC[C@@H](O)C2)cc1F` [Example 271], the IC50 on ABL1 (64-515) [1] was 0.7 nM; at ABL1 (64-515) [2], 0.5 nM.

With `O=C(Nc1ccc(OC(F)(F)Cl)cc1)c1cnc(N2CC[C@@H](O)C2)c(-c2cc(F)cnc2F)c1` [Example 272], the IC50 is 1.1 nM at ABL1 (64-515) [1] and 4 nM on ABL1 (64-515) [2].

`O=C(Nc1ccc(OC(F)(F)Cl)cc1)c1cnc(N2CC[C@@H](O)C2)c(-c2cc(F)nc(F)c2)c1` [Example 273]: the results for the IC50 at ABL1 (64-515) [1] and on ABL1 (64-515) [2] were 1.2 nM and 2 nM, respectively.

As to `N#Cc1ccncc1-c1cc(C(=O)Nc2ccc(OC(F)(F)Cl)cc2)cnc1N1CC[C@@H](O)C1` [Example 274], the half-inhibitory concentration (IC50) at ABL1 (64-515) [1] was 0.4 nM; on ABL1 (64-515) [2], below 0.1 nM.

As to `CC(F)(F)Oc1ccc(NC(=O)c2cnc(N3CC[C@@H](O)C3)c(-c3cncc(F)c3)c2)cc1` [Example 275], the values for the IC50 at ABL1 (64-515) [1] and on ABL1 (64-515) [2] were 2.8 nM and 5 nM, respectively.

Turning to `CC(F)(F)Oc1ccc(NC(=O)c2cnc(N3CC[C@@H](O)C3)c(-c3cncc(C#N)c3)c2)cc1` [Example 276], the half-maximal inhibitory concentration (IC50) is 6.8 nM at ABL1 (64-515) [1] and 3 nM on ABL1 (64-515) [2].

Turning to `O=C(Nc1ccc(S(F)(F)(F)(F)F)cc1)c1cnc(N2CC[C@@H](O)C2)c(-c2cncc(F)c2)c1` [Example 277], the half-maximal inhibitory concentration (IC50) at ABL1 (64-515) [1] came out at 1.7 nM; at ABL1 (64-515) [2], 2 nM.

As for `O=C(Nc1ccc(SC(F)(F)F)nc1)c1cnc(N2CC[C@@H](O)C2)c(-c2cncnc2)c1` [Example 279, (R)-6-(3-Hydroxypyrrolidin-1-yl)-5-(pyrimidin-5-yl)-N-(6-((trifluoromethyl)thio)pyridin-3-yl)nicotinamide], the half-maximal inhibitory concentration (IC50) at ABL1 (64-515) [1] was determined as 8 nM; at ABL1 (64-515) [2], 3 nM.

With `O=C(Nc1ccc(OC(F)(F)Cl)cc1)c1cnc(N2CC[C@@H](O)C2)c(-c2cnccc2F)c1` [Example 280, (R)—N-(4-(Chlorodifluoromethoxy)phenyl)-4′-fluoro-2-(3-hydroxypyrrolidin-1-yl)-[3,3′-bipyridine]-5-carboxamide], the IC50 on ABL1 (64-515) [1] was 0.3 nM; on ABL1 (64-515) [2] it was 2 nM.

In the case of `N[C@]1(C(F)(F)F)CCN(c2ncc(C(=O)Nc3ccc(OC(F)(F)Cl)cc3)cc2-c2cncnc2)C1` [Example 289, (R)-6-(3-Amino-3-(trifluoromethyl)pyrrolidin-1-yl)-N-(4-(chlorodifluoromethoxy)phenyl)-5-(pyrimidin-5-yl)nicotinamide], the half-maximal inhibitory concentration (IC50) at ABL1 (64-515) [1] was determined as 0.7 nM; on ABL1 (64-515) [2], 3 nM.
